Data reported in BindingDB's records for doi:10.1021/jm991074s (University of Catania, 2000).

Each compound was assayed against Cannabinoid receptor 2 (Homo sapiens, UniProt P34972) (assay: Binding affinity towards cloned human cannabinoid receptor 2).
Cannabinoid receptor 2, sequence (P34972 whole entry): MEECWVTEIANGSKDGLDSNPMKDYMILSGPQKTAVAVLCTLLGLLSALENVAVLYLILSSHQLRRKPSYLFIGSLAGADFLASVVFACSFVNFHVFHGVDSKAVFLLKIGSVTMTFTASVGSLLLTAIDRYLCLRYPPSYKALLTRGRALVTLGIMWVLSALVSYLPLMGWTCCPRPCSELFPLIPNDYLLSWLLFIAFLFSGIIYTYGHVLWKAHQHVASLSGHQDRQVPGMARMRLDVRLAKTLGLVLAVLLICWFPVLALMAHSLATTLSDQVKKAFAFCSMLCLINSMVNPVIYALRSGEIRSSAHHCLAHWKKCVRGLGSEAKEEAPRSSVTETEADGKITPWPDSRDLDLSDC
With `CCCCCn1ccc(C(=O)c2cccc3ccccc23)c1` the Ki was 320 nM.
Work on `CC1=CCC2C(C1)c1c(O)cc(CCCCC(F)(F)F)cc1OC2(C)C` (stereo not given) yielded a Ki of 30 nM.
`CCCCC/C=C\C/C=C\C/C=C\C/C=C\CCCC(=O)N1CCOCC1` gave a Ki of 540 nM.
`CCCCC/C=C\C/C=C\C/C=C\C/C=C\CCC(C(=O)NCCO)C(C)C` (stereo not given) was tested, and the Ki was 5100 nM.
Work on `CC1=CCC2C(C1)c1c(O)cc(CCCCCF)cc1OC2(C)C` (stereo not given) yielded a Ki of 8.7 nM.
`CCCCC/C=C\C/C=C\C/C=C\C/C=C\CCC(C)C(=O)NCCF` (stereo not given) [2-Methyl-icosa-5,8,11,14-tetraenoic acid (2-fluoro-ethyl)-amide (0689)] was tested, and the Ki was 130 nM.
For `CCCCCc1cc(O)c2c(c1)OC(C)(C)c1ccc(C)cc1-2` [6,6,9-Trimethyl-3-pentyl-6H-benzo[c]chromen-1-ol(Cannabinol)], the Ki was 95 nM.
Work on `CCCCC/C=C\C/C=C\C/C=C\C/C=C\CCCC(=O)NCCF` [(5Z,8Z,11Z,14Z)-Icosa-5,8,11,14-tetraenoic acid (2-fluoro-ethyl)-amide] yielded a Ki of 320 nM.
Compound `CCCCC/C=C\C/C=C\C/C=C\C/C=C\CCCC(=O)NCCOC` [(5Z,8Z,11Z,14Z)-Icosa-5,8,11,14-tetraenoic acid (2-methoxy-ethyl)-amide] has a Ki of 450 nM.
`CCCCCn1c(C)c(C(=O)c2cccc3ccccc23)c2ccccc21` [JWH-007] showed a Ki of 3 nM.
